In patent US12172967B1, “3-(4,5-bis(4-bromophenyl)-2-(4-chlorophenyl)-1H-imidazol-1-yl)propanoic acid as an antimicrobial compound” (KING FAISAL UNIVERSITY, priority 2023, dated 2024):

Legend:
Format in all cases: cell-based
[1] = tested on: Chrysosporium keratinophilum; assay: agar plate disc-diffusion, antifungal, Chrysosporium keratinophilum; conditions: Sabouraud's dextrose agar, 37° C., 72 h
Method: (§1) The agar plate disc-diffusion method was applied. […] The discs were then placed onto the surface of agar plates (nutrient agar for bacteria and Sabouraud's dextrose agar for fungi) seeded with the test organism. Each plate contained 15 mL of the agar medium, previously seeded with 0.2 mL of the broth culture of each organism pregrown for 18 h. The plates were incubated at 37° C. for 48 h, and 72 h for fungi. The inhibition zones was measured in mm. Discs impregnated with DMSO were used as a control, and its inhibition zone was subtracted from the tested compound actual inhibition zone.

Bacillus cereus = assay: agar plate disc-diffusion, antibacterial, Bacillus cereus; conditions: nutrient agar, 37° C., 48 h
Method: as §1

Escherichia coli = assay: agar plate disc-diffusion, antibacterial, Escherichia coli; conditions: nutrient agar, 37° C., 48 h
Method: as §1

Staphylococcus aureus = assay: agar plate disc-diffusion, antibacterial, Staphylococcus aureus; conditions: nutrient agar, 37° C., 48 h
Method: as §1

Pseudomonas aeruginosa = assay: agar plate disc-diffusion, antibacterial, Pseudomonas aeruginosa; conditions: nutrient agar, 37° C., 48 h
Method: as §1

Aspergillus flavus = assay: agar plate disc-diffusion, antifungal, Aspergillus flavus; conditions: Sabouraud's dextrose agar, 37° C., 72 h
Method: as §1

[2] = A = concentration of comp. = 10,000 μL
[3] = B = concentration of comp. = 30,000 μL
[4] = C = concentration of comp. = 50,000 μL

In the case of `O=C(O)CCn1c(-c2ccc(Cl)cc2)nc(-c2ccc(Br)cc2)c1-c1ccc(Br)cc1` [V, 3-(4,5-bis(4-bromophenyl)-2-(4-chlorophenyl)-1H-imidazol-1-yl)propanoic acid], the “inhibition zone, Chrysosporium keratinophilum, A” value [1, 2] is reported as 24 mm, the “inhibition zone, Chrysosporium keratinophilum, B” value [1, 3] is reported as 26 mm and the “inhibition zone, Chrysosporium keratinophilum, C” value [1, 4] is reported as 47 mm. For the same molecule, the “inhibition zone, Bacillus Cereus, A” value (Bacillus cereus; [2]) was 19 mm, the “inhibition zone, Bacillus Cereus, B” value (Bacillus cereus; [3]) was 21 mm and the “inhibition zone, Bacillus Cereus, C” value (Bacillus cereus; [4]) was 29 mm. The “inhibition zone, Escherichia coli, A” value (Escherichia coli; [2]) was 28 mm, the “inhibition zone, Escherichia coli, B” value (Escherichia coli; [3]) was 37 mm and the “inhibition zone, Escherichia coli, C” value (Escherichia coli; [4]) was 51 mm. The “inhibition zone, Staphylococcus aureus, A” value (Staphylococcus aureus; [2]) was 17 mm, the “inhibition zone, Staphylococcus aureus, B” value (Staphylococcus aureus; [3]) was 19 mm and the “inhibition zone, Staphylococcus aureus, C” value (Staphylococcus aureus; [4]) was 26 mm. The “inhibition zone, Pseudomonas aeruginosa, A” value (Pseudomonas aeruginosa; [2]) was 25 mm, the “inhibition zone, Pseudomonas aeruginosa, B” value (Pseudomonas aeruginosa; [3]) was 27 mm and the “inhibition zone, Pseudomonas aeruginosa, C” value (Pseudomonas aeruginosa; [4]) was 41 mm. For the same molecule, the “inhibition zone, Aspergillus flavus, A” value (Aspergillus flavus; [2]) was 23 mm, the “inhibition zone, Aspergillus flavus, B” value (Aspergillus flavus; [3]) was 27 mm and the “inhibition zone, Aspergillus flavus, C” value (Aspergillus flavus; [4]) was 36 mm.
